“And” between values parts separate entries of the source, which are not always exact repeats. Equal entries are not always repeated. Inconclusive results and toxic doses are left out. The calls were made as follows: active = survival T/C of 150% or more; inactive = T/C below 125% in these data.
Tested on: P388 leukemia ip, CD2F1 mice, survival T/C
Assay: NCI In Vivo Anticancer Drug Screen. Data for tumor model P388 Leukemia (intraperitoneal) in CD2F1 (CDF1) mice
Settings: endpoint: median survival time, higher = longer survival
How it was run: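 Mice carrying the transplanted tumor received test compound or vehicle. Survival was recorded in each group, and the value is the treated-group measurement divided by that of the vehicle-treated control group.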

[1] = dose: 100.0 mg/kg/injection, schedule: Q04DX002 (ip), vehicle: saline with Tween-80
[2] = dose: 200.0 mg/kg/injection, schedule: Q04DX002 (ip), vehicle: saline with Tween-80
[3] = dose: 100.0 mg/kg/injection, schedule: Q01DX009 (ip), vehicle: saline with Tween-80
[4] = dose: 100.0 mg/kg/injection, schedule: Q04DX003 (ip), vehicle: saline with Tween-80
[5] = dose: 200.0 mg/kg/injection, schedule: Q01DX009 (ip), vehicle: saline with Tween-80
[6] = dose: 200.0 mg/kg/injection, schedule: Q04DX003 (ip), vehicle: saline with Tween-80
[7] = dose: 400.0 mg/kg/injection, schedule: Q01DX009 (ip), vehicle: saline with Tween-80
[8] = dose: 400.0 mg/kg/injection, schedule: Q04DX003 (ip), vehicle: saline with Tween-80
[9] = dose: 50.0 mg/kg/injection, schedule: Q01DX009 (ip), vehicle: saline with Tween-80
[10] = dose: 12.5 mg/kg/injection, schedule: Q01DX009 (ip), vehicle: saline with Tween-80
[11] = dose: 25.0 mg/kg/injection, schedule: Q01DX009 (ip), vehicle: saline with Tween-80
[12] = dose: 50.0 mg/kg/injection, schedule: Q01DX009 (ip), vehicle: Klucel (hydroxypropylcellulose) (HPC)
[13] = dose: 100.0 mg/kg/injection, schedule: Q01DX009 (ip), vehicle: Klucel (hydroxypropylcellulose) (HPC)
[14] = dose: 60.0 mg/kg/injection, schedule: Q01DX005 (ip), vehicle: Klucel (hydroxypropylcellulose) (HPC)
[15] = dose: 240.0 mg/kg/injection, schedule: Q01DX005 (ip), vehicle: Klucel (hydroxypropylcellulose) (HPC)
[16] = dose: 60.0 mg/kg/injection, schedule: Q01DX005 (ip), vehicle: saline with Tween-80
[17] = dose: 120.0 mg/kg/injection, schedule: Q01DX005 (ip), vehicle: saline with Tween-80
[18] = dose: 240.0 mg/kg/injection, schedule: Q01DX005 (ip), vehicle: saline with Tween-80
[19] = dose: 200.0 mg/kg/injection, schedule: Q01DX009 (ip), vehicle: Klucel (hydroxypropylcellulose) (HPC)
[20] = dose: 50.0 mg/kg/injection, schedule: Q01DX005 (ip), vehicle: Klucel (hydroxypropylcellulose) (HPC)
[21] = dose: 100.0 mg/kg/injection, schedule: Q01DX005 (ip), vehicle: Klucel (hydroxypropylcellulose) (HPC)
[22] = dose: 50.0 mg/kg/injection, schedule: Q01DX009 (ip), vehicle: other

Measured: T/C

CC(=O)C1C(=O)C(=O)N(c2ccc(O)c(C(=O)O)c2)C1=O (stereo unspecified)
inactive: [1] 100 % of control | [2] 94 % of control | dose: 400.0 mg/kg/injection, schedule: Q04DX002 (ip), vehicle: saline with Tween-80 93 % of control

c1ccc2nc(-c3cc4ccccc4s3)ccc2c1
inactive: [3] 100 % of control and 104 % of control | [4] 90 % of control | [5] 100 % of control and 90 % of control | [6] 90 % of control | [7] 109 % of control and 95 % of control | [8] 90 % of control

CCOC(=O)N1CCN(CCCCCOc2ccccc2C2CCCCC2)CC1
inactive: [9] 110 % of control | [3] 108 % of control | [5] 124 % of control | [7] 115 % of control

CCCCCCCCCCCCCCCCOc1ccc2c(c1OCCCCCCCCCCCCCCCC)OC(C)(C)C=C2C
inactive: [1] 88 % of control | [2] 86 % of control

O=c1ccc2nc3ccccc3sc-2c1
inactive: [10] 90 % of control | [11] 104 % of control | [9] 109 % of control

CC1(c2ccc(N)cc2)NC(=O)NC1=O (stereo unspecified)
inactive: [12] 99 % of control | [13] 96 % of control

Cc1cc(N(CCO)CCO)c(OCc2ccccc2)c(N(CCO)CCO)c1
inactive: [14] 99 % of control | dose: 120.0 mg/kg/injection, schedule: Q01DX005 (ip), vehicle: Klucel (hydroxypropylcellulose) (HPC) 100 % of control | [15] 98 % of control

COc1ccc(C2COc3cc(O)c(O)cc3C2)cc1 (stereo unspecified)
inactive: [16] 97 % of control | [17] 107 % of control | [18] 97 % of control

COCC/C=C/CCl
inactive: [4] 100 % of control | [6] 100 % of control | [8] 95 % of control

O=C(Oc1ccc[nH]c1=O)c1ccc(F)cc1
inactive: dose: 50.0 mg/kg/injection, schedule: Q01DX009 (ip), vehicle: saline 99 % of control and 104 % of control | dose: 100.0 mg/kg/injection, schedule: Q01DX009 (ip), vehicle: saline 100 % of control and 101 % of control | dose: 200.0 mg/kg/injection, schedule: Q01DX009 (ip), vehicle: saline 106 % of control and 108 % of control | dose: 400.0 mg/kg/injection, schedule: Q01DX009 (ip), vehicle: saline 111 % of control

COc1ccc(CCN2C(=O)C(=O)N(c3cccc4c(N5C(=O)C(=O)N(CCc6ccc(OC)c(OC)c6)C5=O)cccc34)C2=O)cc1OC
inactive: [12] 95 % of control | [13] 93 % of control | [19] 96 % of control

CCCCCCC(=O)/C=C/c1cc(Cl)cc(Cl)c1O
inactive: [12] 105 % of control | [13] 91 % of control | [19] 101 % of control

c1ccc2c3c([nH]c2c1)CCCCC3
inactive: [11] 96 % of control | [9] 109 % of control | [3] 106 % of control | [5] 118 % of control

C=CCSc1nc2ccc(N3C(=O)C=CC3=O)cc2s1
inactive: dose: 6.25 mg/kg/injection, schedule: Q01DX009 (ip), vehicle: Klucel (hydroxypropylcellulose) (HPC) 111 % of control | dose: 12.5 mg/kg/injection, schedule: Q01DX009 (ip), vehicle: Klucel (hydroxypropylcellulose) (HPC) 104 % of control and 113 % of control | dose: 25.0 mg/kg/injection, schedule: Q01DX009 (ip), vehicle: Klucel (hydroxypropylcellulose) (HPC) 108 % of control and 113 % of control

CCOC(=O)c1nc(SC)n(C)c1C(=O)OCC
inactive: [16] 100 % of control | [17] 100 % of control | [18] 105 % of control

NN/C(N)=N/S(=O)(=O)c1ccccc1
inactive: [20] 107 % of control | [21] 102 % of control

O=C(CCl)NCc1ccc([N+](=O)[O-])cc1
inactive: [11] 108 % of control | [9] 112 % of control | [3] 108 % of control | [5] 103 % of control

Cn1/c2cc/c1=C(\c1ccccc1)c1ccc([n-]1)/C(c1ccccc1)=c1/cc/c([nH]1)=C(\c1ccccc1)c1ccc([n-]1)/C=2c1ccccc1.O.O=S(=O)(O)C(F)(F)F.[Cu+2]
inactive: [10] 102 % of control | [11] 91 % of control | [22] 88 % of control | [9] 91 % of control

O=C1CC2(C(=O)N1CN1CCCCC1)c1ccccc1-c1ccccc12
active: [19] 156 % of control
inactive: [12] 104 % of control and 106 % of control | [13] 102 % of control and 115 % of control

O=C(c1ccc2c(c1)C(=O)NC2=O)c1ccc2c(c1)C(=O)NC2=O
inactive: [11] 96 % of control | [9] 89 % of control | [3] 86 % of control

C(=C\C1N=C1c1ccccc1)/c1ccc2ccccc2c1 (stereo unspecified)
inactive: dose: 50.0 mg/kg/injection, schedule: Q04DX002 (ip), vehicle: suspension in saline 99 % of control | dose: 100.0 mg/kg/injection, schedule: Q04DX002 (ip), vehicle: suspension in saline 97 % of control | dose: 200.0 mg/kg/injection, schedule: Q04DX002 (ip), vehicle: suspension in saline 99 % of control

COc1ccc(C)cc1NC(=O)ON=C1CCCCC1
inactive: [16] 95 % of control | [17] 94 % of control | [18] 100 % of control

O=C(O)c1c2c(nc3ccccc13)-c1ccccc1C2
inactive: [20] 102 % of control | [21] 93 % of control | dose: 200.0 mg/kg/injection, schedule: Q01DX005 (ip), vehicle: Klucel (hydroxypropylcellulose) (HPC) 89 % of control

CCOC1=Cc2c(oc3c(C(C)(C)C)cc(OCC)cc23)OC(C(C)(C)C)=C1
inactive: dose: 3.12 mg/kg/injection, schedule: Q01DX009 (ip), vehicle: saline with Tween-80 103 % of control | dose: 6.25 mg/kg/injection, schedule: Q01DX009 (ip), vehicle: saline with Tween-80 92 % of control | [10] 100 % of control | [11] 100 % of control

Cc1ccc(N(CN2C(=O)CCC2=O)CS(=O)(=O)c2ccc(Cl)cc2)cc1
inactive: dose: 15.0 mg/kg/injection, schedule: Q01DX005 (ip), vehicle: Klucel (hydroxypropylcellulose) (HPC) 107 % of control | dose: 30.0 mg/kg/injection, schedule: Q01DX005 (ip), vehicle: Klucel (hydroxypropylcellulose) (HPC) 91 % of control | [14] 93 % of control and 95 % of control | [15] 90 % of control

CC(CC=O)CCCC(C)(C)O (stereo unspecified)
inactive: [4] 100 % of control | [6] 100 % of control | [8] 100 % of control

CC(C)(C)CC(C)(C)c1ccc(OCc2ccc(Cl)c(Cl)c2)cc1
inactive: [9] 100 % of control | [3] 100 % of control | [5] 91 % of control

Cc1ccc(/C=C/c2ccc3ccccc3c2)cc1
inactive: [22] 108 % of control | dose: 100.0 mg/kg/injection, schedule: Q01DX009 (ip), vehicle: other 98 % of control | dose: 200.0 mg/kg/injection, schedule: Q01DX009 (ip), vehicle: other 120 % of control

— PubChem BioAssay AID330 (DTP/NCI, 2004)
